The source of these data is patent US20240238458A1, “COMPOUNDS TARGETING FIBROBLAST-ACTIVATION PROTEIN AND METHODS OF USE THEREOF” (Purdue Research Foundation, priority 2021, published 2024).

This experiment relates to phosphorylation of Akt. Kind of experiment: Inhibition of phosphorylation of Akt by FAP5-PI3K inhibitors in TGF-β1 stimulated primary HLF (western blot). Format: cell-based. The settings on record: 24 hours and 48 hours of incubation, compounds with non-releasable linkers. The method, then:
Primary HLF with passage number #˜8 were seeded in Dulbecco's Modified Eagle Medium (DMEM) with 10% fetal bovine serum (FBS) (˜100,000 cells/well) in 12 well plates to achieve ˜80% confluency. The cells were then starved in DMEM with 0.4% FBS for 24 hours, followed by stimulation by 10 ng/mL transforming growth factor-beta 1 (TGF-β1) for 24 hours.
After stimulation, cells were incubated with the FAP5-PI3K inhibitors for 2 hours, followed by replacement of culture media containing 2 ng/mL TGF-β1 and incubated for 24 hours (see FIG. 21) and 48 hours (see FIG. 22). All wells are added with 0.1% of DMSO as vehicle.
Cells were detached using trypsin and lysed with lysis buffer, proteins from cells were extracted for western blot analysis.

Regarding `COc1ncc(-c2ccc3nccc(-c4ccc(COC(=O)NCCNC(=O)CCc5cccc6c5CN(C(=O)C[C@@H]5C[C@@H](C(=O)N7CC(F)(F)C[C@H]7C#N)NC5=O)C6)nc4)c3c2)cc1NS(=O)(=O)c1ccc(F)cc1F` [FAP5-Carbamate-PI3ki], the “inhibition of phosphorylation of Akt (pAkt normalized to tAkt)” value was “consistently performed better than FAP5-Ester-PI3Ki and FAP5-PI3Ki-NR”.
